For data set [1], the system named is Escherichia coli (ATCC 25922). The data set can be described thus: Antimicrobial assay, broth microdilution, E. coli. To be noted: MIC = 80% growth inhibition, tested 400 to 0.39 µg/mL; for MIC E. coli: 12 h at 37 °C; for MIC: Escherichia coli, ATCC25922, 12 h at 37 °C. More on the design: key to MIC E. coli: -: no activity. Type of data set: cell-based. The protocol: (§1) Meanwhile, the antimicrobial assays of compounds 1–9 were screened against Staphylococcus aureus (ATCC 25923), Escherichia coli (ATCC 25922) and Candida albicans (ATCC 10231).
(§2) The antimicrobial assays against S. aureus, E. coli and C. albicans were carried out by the broth microdilution method. The tested organisms were incubated overnight with shaking (200 rpm) in thermostatic oscillation incubator (37 °C) in Mueller Hinton broth (MHB) and liquid Sabourand medium for the bacteria and the fungus, respectively. The microbial inoculum density was adjusted to 1 × 10^6 cfu/mL with 0.9% saline solution by comparison with a MacFarland standard. The tested substances and positive drugs were dissolved in methanol to an initial concentration of 40 mg/mL. 4 μL of initial compound solution and 196 μL of MHB (liquid Sabourand medium for fungus) were added into the first well and mixed evenly. Then 100 μL of solution from the first hole, along with 2 μL of methanol and 98 μL of MHB (liquid Sabourand medium for fungus), were transferred to the second hole, and then shaken up as mixture uniform. The repetitive operation was performed to the eleventh one, from which 100 μL of solution well was discarded. Then, 100 μL of microbial suspension was added to the solutions in 96-well to achieve a final volume of 200 µL and final sample concentrations from 400 to 0.39 µg/mL. The blank well was also incubated with only medium under the same conditions. All experiments were carried out in triplicate and with chloramphenicol and ketoconazole as the positive controls. Optical density measurement for bacteria and fungus was recorded at 620 nm after incubation at 37 °C for 12 and 24 h, respectively. The minimal inhibitory concentration (MIC) was defined as the concentration at which the growth was inhibited 80% of the tested microorganisms.

The subject of data set [2] is Staphylococcus aureus (ATCC 25923). The data set can be described thus: Antimicrobial assay, broth microdilution, S. aureus. Type of data set: cell-based. More on the design: key to MIC S. aureus: -: no activity. To be noted: MIC = 80% growth inhibition, tested 400 to 0.39 µg/mL; for MIC: Staphylococcus aureus, ATCC25923, 12 h at 37 °C. The protocol:
as §1, §2
A general note: In broth dilution the organism is exposed to a series of concentrations in liquid medium.

In data set [3] the test system is Candida albicans (ATCC 10231). Kind of data set: Antimicrobial assay, broth microdilution, C. albicans. As to conditions: MIC = 80% growth inhibition, tested 400 to 0.39 µg/mL; for MIC C. albicans: 24 h at 37 °C; for MIC: Candida albicans, ATCC10231, 24 h at 37 °C. Type of data set: cell-based. More on the design: key to MIC C. albicans: -: no activity. The protocol: as §1, §2

Data set [4] has as its system human lung adenocarcinoma (A549) cell line. The data set can be described thus: Cytotoxicity by the MTT method, A549. To be noted: A549, read-out: IC50 cytotoxicity against A549. The protocol: (§3) The cytotoxic activity against HL60, A549 and HL-7702 cell lines was performed by the MTT method as previously described.
In general terms: Tetrazolium dyes change colour on reduction, which living cells bring about.

Data set [5] is described as follows: Cytotoxicity by the MTT method, HL-7702. As to conditions: human. On the procedure: as §3
Data set [6] has as its system human promyelocytic leukemia (HL60) cell line. Kind of data set: cells. To be noted: HL-60, read-out: IC50 cytotoxicity against HL60. On the procedure:
as §3

Results on twelve compounds are retold here after publication PMC6680918, “New Butenolides and Cyclopentenones from Saline Soil-Derived Fungus Aspergillus Sclerotiorum” (Molecules, 2019).

Converted amounts (≈) assume the structure as drawn.

The term MIC denotes the least concentration at which growth counts as inhibited. Consider `COC1=CC(=O)OC1(O)C(C)C` (stereo not drawn) [Compound 9, dihydropenicillic acid], for which the “MIC E. coli” value in data set [1] is “-”. Besides, the MIC in data set [2] was > 400 µg/mL. For the same compound, the “MIC C. albicans” value in data set [3] was “-”.
`COC1=CC(=O)OC1(O)C(C)CO` (stereo not drawn) [Compound 6, 6-hydroxyl dihydropenicillic acid]: the “MIC E. coli” value in data set [1] is listed as “-”. Further, the MIC in data set [2] is > 400 µg/mL. For the same compound, the “MIC C. albicans” value in data set [3] is given as “-”.
By IC50 is commonly meant the midpoint of a concentration-inhibition curve. For the compound `COc1cccc2c1C(=O)c1c(O)c3c(c(O)c1C2=O)C[C@@](O)(C(=O)CO)C[C@@H]3O[C@H]1C[C@H](N)[C@H](O)[C@H](C)O1` [doxorubicin, reference compound], the IC50 in data set [4] was 1.5 µM; in data set [5] (HL-7702 cells (human normal liver, non-cancer)), 8.3 µM; in data set [6], 0.85 µM.
In the case of `C=C(OC)C1(O)OC(=O)C=C1C` (stereo not drawn) [Compound 7, spersclerotioron G], the “MIC E. coli” value in data set [1] is “-”. Besides, the MIC in data set [2] is > 400 µg/mL. The “MIC C. albicans” value in data set [3] is on record as “-”.
As to `C=C(C)C1(O)OC(=O)C=C1OC` (stereo not drawn) [Compound 8, penicillic acid], the MIC was determined as 12.5 µg/mL (≈ 73.5 µM) in data set [1], 6.25 µg/mL (≈ 36.7 µM) in data set [2] and 50 µg/mL (≈ 294 µM) in data set [3].
As for `COC1=CC(=O)OC1(O)C(C)Cc1c(C)cc(O)cc1O` (stereo not drawn) [Compound 3, Aspersclerolide C], the MIC in data set [1] and in data set [2] was 200 µg/mL (≈ 680 µM) throughout. Further, the IC50 in data set [4] amounted to 16.7 µM; in data set [5], 22.8 µM; in data set [6] it was 12.1 µM. Moreover, the “MIC C. albicans” value in data set [3] is reported as “-”.
Regarding `COC(CO)C1(O)OC(=O)C=C1C` (stereo not drawn) [Compound 2, Aspersclerolide B], the MIC in data set [1] and in data set [2] was 200 µg/mL (≈ 1060 µM) each time. Besides, the “MIC C. albicans” value in data set [3] is “-”.
On to `O=C(N[C@H](CO)[C@H](O)c1ccc([N+](=O)[O-])cc1)C(Cl)Cl` [chloramphenicol, reference compound], for which the MIC in data set [1] amounted to 6.25 µg/mL (≈ 19.3 µM); in data set [2], 3.12 µg/mL (≈ 9.66 µM).
Turning to `COC1=CC(=O)C(C)C1O` (racemic) [Compound 5, (±)-4-hydroxy-3-methoxy-5-methyl-2-cyclopentenone], the “MIC E. coli” value in data set [1] is listed as “-”. For the same compound, in data set [2] (12 h at 37 °C), the “MIC S. aureus” value was “-”. In addition, the “MIC C. albicans” value in data set [3] is on record as “-”.
`CC(=O)C1(O)OC(=O)C=C1C` (stereo not drawn) [Compound 1, Aspersclerolide A]: the MIC in data set [1] and in data set [2] was > 400 µg/mL throughout. The IC50 is 8.9 µM in data set [4], 17.6 µM in data set [5] and 6.5 µM in data set [6]. Further, the “MIC C. albicans” value in data set [3] was “-”.
Compound `CC(=O)N1CCN(c2ccc(OCC3COC(Cn4ccnc4)(c4ccc(Cl)cc4Cl)O3)cc2)CC1` (stereo not drawn) [ketoconazole, reference compound] registered an MIC in data set [3] of 6.25 µg/mL (≈ 11.8 µM).
On to `COC1=CC(=O)OC12Oc1cc(O)cc(C)c1CC2C` (racemic) [Compound 4, (±)-Aspersclerolide D], for which the MIC in data set [1] and in data set [2] was > 400 µg/mL each time. For the same compound, the “MIC C. albicans” value in data set [3] is reported as “-”.
